20 compounds from PubChem BioAssay AID248 (DTP/NCI, 2004) can be followed below.

This experiment has as its system L1210 leukemia ip in BDF1 mice, survival T/C. Briefly: NCI In Vivo Anticancer Drug Screen. Data for tumor model L1210 Leukemia (intraperitoneal) in B6D2F1 (BDF1) mice. The note with it: endpoint: mean survival time, higher = longer survival. The gist of the method:
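Read-out is survival time, reported as the treated-group measurement over the vehicle-control measurement.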

The mark [1] stands for this setting: dose: 50.0 mg/kg/injection, schedule: Q01DX001 (ip), vehicle: saline.
Setting [2] is: dose: 100.0 mg/kg/injection, schedule: Q01DX001 (ip), vehicle: saline.
[3] abbreviates: dose: 200.0 mg/kg/injection, schedule: Q01DX001 (ip), vehicle: saline.
Setting [4] is: dose: 100.0 mg/kg/injection, schedule: Q01DX009 (ip), vehicle: Klucel (hydroxypropylcellulose) (HPC).
Setting [5] is: dose: 200.0 mg/kg/injection, schedule: Q01DX009 (ip), vehicle: Klucel (hydroxypropylcellulose) (HPC).
Setting [6] is: dose: 100.0 mg/kg/injection, schedule: Q04DX003 (ip), vehicle: Klucel (hydroxypropylcellulose) (HPC).
[7] abbreviates: dose: 200.0 mg/kg/injection, schedule: Q04DX003 (ip), vehicle: Klucel (hydroxypropylcellulose) (HPC).
Where [8] appears, read: dose: 50.0 mg/kg/injection, schedule: Q01DX009 (ip), vehicle: Klucel (hydroxypropylcellulose) (HPC).
The mark [9] stands for this setting: dose: 100.0 mg/kg/injection, schedule: Q01DX001 (ip), vehicle: saline with Tween-80.
The mark [10] stands for this setting: dose: 200.0 mg/kg/injection, schedule: Q01DX001 (ip), vehicle: saline with Tween-80.
Setting [11] is: dose: 100.0 mg/kg/injection, schedule: Q04DX003 (ip), vehicle: saline.
Where [12] appears, read: dose: 200.0 mg/kg/injection, schedule: Q04DX003 (ip), vehicle: saline.
Setting [13] is: dose: 400.0 mg/kg/injection, schedule: Q04DX003 (ip), vehicle: saline.
Where [14] appears, read: dose: 400.0 mg/kg/injection, schedule: Q01DX001 (ip), vehicle: saline with Tween-80.
The mark [15] stands for this setting: dose: 100.0 mg/kg/injection, schedule: Q01DX009 (ip), vehicle: saline with Tween-80.
[16] abbreviates: dose: 100.0 mg/kg/injection, schedule: Q04DX003 (ip), vehicle: saline with Tween-80.

Structures are written as SMILES. Several values for one entry are separate records, joined by “and”; a condition that tells them apart may be missing. Equal entries are not always repeated. Toxic doses and inconclusive results are not listed.

As to `C[N+](C)(C)c1ncnc2c1ncn2C1CC(O)C(CO)O1` (stereo unspecified), the T/C under setting [1] is 104 % of control, the T/C under setting [2] was 96 % of control and the T/C under setting [3] was 102 % of control.

With `O=C1C=CC(=O)N1C(=O)NC(I)NC(=O)N1C(=O)C=CC1=O`, the T/C is, setting by setting: (dose: 100.0 mg/kg/injection, schedule: Q01DX001 (ip), vehicle: carboxymethylcellulose (CMC)) 94 % of control; (dose: 200.0 mg/kg/injection, schedule: Q01DX001 (ip), vehicle: carboxymethylcellulose (CMC)) 98 % of control; (dose: 400.0 mg/kg/injection, schedule: Q01DX001 (ip), vehicle: carboxymethylcellulose (CMC)) 100 % of control.

Turning to `Cc1ccc(C2CC2S(=O)(=O)c2ccccc2)cc1` (stereo unspecified), the T/C was 108 % of control under setting [2]; 112 % of control under setting [3]; 102 % of control (dose: 400.0 mg/kg/injection, schedule: Q01DX001 (ip), vehicle: saline).

Turning to `S=c1[nH]ncn1-c1ccccc1`, the T/C is, setting by setting: under setting [4], 92 % of control; under setting [5], 93 % of control.

In the case of `O=[N+]([O-])c1cccc(C=Nc2ccc(Cl)cc2Cl)c1`, the T/C is, setting by setting: (dose: 100.0 mg/kg/injection, schedule: Q01DX001 (ip), vehicle: Klucel (hydroxypropylcellulose) (HPC)) 92 % of control; under setting [6], 102 % of control; (dose: 200.0 mg/kg/injection, schedule: Q01DX001 (ip), vehicle: Klucel (hydroxypropylcellulose) (HPC)) 91 % of control; under setting [7], 98 % of control; (dose: 400.0 mg/kg/injection, schedule: Q01DX001 (ip), vehicle: Klucel (hydroxypropylcellulose) (HPC)) 91 % of control; (dose: 400.0 mg/kg/injection, schedule: Q04DX003 (ip), vehicle: Klucel (hydroxypropylcellulose) (HPC)) 89 % of control.

`ClC1=C(Cl)C2(Cl)C3COCC3C1(Cl)C2(Cl)Cl` (stereo unspecified): the T/C is 105 % of control under setting [8]; 90 % of control under setting [4]; 97 % of control under setting [6]; 90 % of control under setting [5]; 95 % of control under setting [7].

For `CSc1nc(N)cc(OCc2ccccc2)n1`, the T/C reads like this: (dose: 50.0 mg/kg/injection, schedule: Q01DX001 (ip), vehicle: saline with Tween-80) 100 % of control; under setting [9], 97 % of control; under setting [10], 92 % of control.

`C=CCNC(=O)c1ccccc1OCC(=O)O`: the T/C (dose: 100.0 mg/kg/injection, schedule: Q01DX009 (ip), vehicle: gum acacia) is 93 % of control; the T/C (dose: 100.0 mg/kg/injection, schedule: Q04DX003 (ip), vehicle: gum acacia) was 103 % of control; the T/C (dose: 200.0 mg/kg/injection, schedule: Q01DX009 (ip), vehicle: gum acacia) is 88 % of control; the T/C (dose: 200.0 mg/kg/injection, schedule: Q04DX003 (ip), vehicle: gum acacia) is 100 % of control; the T/C (dose: 400.0 mg/kg/injection, schedule: Q01DX009 (ip), vehicle: gum acacia) was 94 % of control; the T/C (dose: 400.0 mg/kg/injection, schedule: Q04DX003 (ip), vehicle: gum acacia) is 97 % of control.

Consider `CCCCOC(=O)CNC(=O)N(CC)C(=NCC)c1ccc(NC(=O)c2ccc(C(=O)Nc3ccc(C(=NCC)N(CC)C(=O)NCC(=O)OCCCC)cc3)cc2)cc1`, for which the T/C (dose: 1.87 mg/kg/injection, schedule: Q01DX015 (ip), vehicle: methylcellulose (MC)) was 106 % of control; the T/C (dose: 7.5 mg/kg/injection, schedule: Q01DX015 (ip), vehicle: methylcellulose (MC)) is 162 % of control and 189 % of control; the T/C (dose: 15.0 mg/kg/injection, schedule: Q01DX015 (ip), vehicle: methylcellulose (MC)) is 121 % of control.

As to `c1ccc2c(c1)OCCOCCOc1ccccc1OCCOCCO2`, the T/C by setting is: (dose: 100.0 mg/kg/injection, schedule: Q01DX009 (ip), vehicle: saline) 98 % of control and 89 % of control; under setting [11], 94 % of control and 92 % of control; (dose: 200.0 mg/kg/injection, schedule: Q01DX009 (ip), vehicle: saline) 101 % of control and 92 % of control; under setting [12], 93 % of control and 92 % of control; (dose: 400.0 mg/kg/injection, schedule: Q01DX009 (ip), vehicle: saline) 94 % of control and 91 % of control; under setting [13], 89 % of control and 90 % of control.

As for `Cn1c(=O)n2n(c1=O)C1CCC2C2C=CC21` (stereo unspecified), the T/C (dose: 6.25 mg/kg/injection, schedule: Q01DX001 (ip), vehicle: saline) is 93 % of control and the T/C (dose: 12.5 mg/kg/injection, schedule: Q01DX001 (ip), vehicle: saline) is 94 % of control.

`CSc1nc(O)cc(=O)n1C`: the T/C was 95 % of control (dose: 100.0 mg/kg/injection, schedule: Q01DX Z (ip), vehicle: methylcellulose (MC)) and 101 % of control (dose: 200.0 mg/kg/injection, schedule: Q01DX Z (ip), vehicle: methylcellulose (MC)).

As to `CCOc1ccc(C2(C)CC(=O)NN2)c(O)c1` (stereo unspecified), the T/C under setting [9] was 101 % of control, the T/C under setting [10] was 103 % of control and the T/C under setting [14] is 98 % of control.

As to `FC(Cl)(Cl)c1nc2nc(Cl)c(Cl)nc2[nH]1`, the T/C was 95 % of control (dose: 25.0 mg/kg/injection, schedule: Q01DX009 (ip), vehicle: water); 94 % of control (dose: 50.0 mg/kg/injection, schedule: Q01DX009 (ip), vehicle: water); 97 % of control (dose: 100.0 mg/kg/injection, schedule: Q01DX009 (ip), vehicle: water).

`Nc1ncc(CNc2ccc(C(=O)NC(CC(=O)O)C(=O)O)cc2)c(N)n1` (stereo unspecified): the T/C runs as follows: under setting [9], 93 % of control; under setting [15], 106 % of control; under setting [16], 93 % of control; under setting [10], 105 % of control; (dose: 200.0 mg/kg/injection, schedule: Q01DX009 (ip), vehicle: saline with Tween-80) 100 % of control; (dose: 200.0 mg/kg/injection, schedule: Q04DX003 (ip), vehicle: saline with Tween-80) 97 % of control. For the same compound, the T/C under setting [14] is 100 % of control; the T/C (dose: 400.0 mg/kg/injection, schedule: Q01DX009 (ip), vehicle: saline with Tween-80) was 105 % of control; the T/C (dose: 400.0 mg/kg/injection, schedule: Q04DX003 (ip), vehicle: saline with Tween-80) is 98 % of control.

`CCc1csc(=S)[nH]1`: the T/C under setting [8] is 98 % of control; the T/C under setting [4] was 93 % of control; the T/C under setting [6] was 98 % of control; the T/C under setting [5] is 96 % of control; the T/C under setting [7] was 98 % of control.

Take `CC1(C)OCC(CO)([N+](=O)[O-])CO1`: the T/C runs as follows: (dose: 12.5 mg/kg/injection, schedule: Q04DX003 (ip), vehicle: saline with Tween-80) 92 % of control; (dose: 25.0 mg/kg/injection, schedule: Q01DX009 (ip), vehicle: saline with Tween-80) 108 % of control; (dose: 25.0 mg/kg/injection, schedule: Q04DX003 (ip), vehicle: saline with Tween-80) 93 % of control; (dose: 50.0 mg/kg/injection, schedule: Q01DX009 (ip), vehicle: saline with Tween-80) 108 % of control; (dose: 50.0 mg/kg/injection, schedule: Q04DX003 (ip), vehicle: saline with Tween-80) 95 % of control; under setting [15], 108 % of control. The T/C under setting [16] is 100 % of control and the T/C (dose: 150.0 mg/kg/injection, schedule: Q04DX003 (ip), vehicle: saline with Tween-80) is 94 % of control.

For `CCc1nc(NN)nc(CC)c1-c1ccccc1O`, the T/C by setting is: (dose: 100.0 mg/kg/injection, schedule: Q04DX002 (ip), vehicle: Klucel (hydroxypropylcellulose) (HPC)) 105 % of control; (dose: 200.0 mg/kg/injection, schedule: Q04DX002 (ip), vehicle: Klucel (hydroxypropylcellulose) (HPC)) 91 % of control.

In the case of `COc1cccc(C=Nc2ccc(Br)cc2)c1O.COc1cccc(C=Nc2ccc(Br)cc2)c1O.[Co]`, the T/C was 98 % of control under setting [11], 98 % of control under setting [12] and 98 % of control under setting [13].

On to `CC1(C)C[N+](C)(Cc2ccccc2)N=C1[O-]` (stereo unspecified), for which the T/C (dose: 25.0 mg/kg/injection, schedule: Q01DX001 (ip), vehicle: saline) was 94 % of control; the T/C under setting [1] is 94 % of control; the T/C under setting [2] is 94 % of control; the T/C under setting [3] is 102 % of control.
